Data taken from PubChem BioAssay (NCI).
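1) Cells in 96-well plates. 2) Compound, 48 h, 5 concentrations. 3) Linear interpolation between surrounding doses. 4) Unreached endpoint = highest concentration. GI50 is the concentration that inhibits growth by half. The concentration for full growth arrest is given as TGI.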

Experiments:
Assay in all cases: inhibition of tumour cell growth, NCI panel, 48 h
[1] = system: CAKI-1 renal
[2] = system: HCT-116 colon
[3] = system: MCF7 breast
[4] = system: MDA-MB-231 breast
[5] = system: NCI-H522 lung
[6] = system: OVCAR-3 ovarian
[7] = system: PC-3 prostate
[8] = system: SK-MEL-28 melanoma
[9] = system: SW-620 colon
[10] = system: UO-31 renal

Compound | GI50 [1] [µM] | TGI [1] [µM] | GI50 [2] [µM] | TGI [2] [µM] | GI50 [3] [µM] | TGI [3] [µM] | GI50 [4] [µM] | TGI [4] [µM] | GI50 [5] [µM] | TGI [5] [µM] | GI50 [6] [µM] | TGI [6] [µM] | GI50 [7] [µM] | TGI [7] [µM] | GI50 [8] [µM] | TGI [8] [µM] | GI50 [9] [µM] | TGI [9] [µM] | GI50 [10] [µM] | TGI [10] [µM]
C=C1C(=O)O[C@H]2[C@H]1CC/C(COC(=O)NCCCCCCCCNC(=O)OC/C1=C/CC[C@@]3(C)O[C@H]3[C@H]3OC(=O)C(=C)[C@@H]3CC1)=C\CC[C@@]1(C)O[C@@H]21 | 0.657 | 2.02 | 0.198 | 0.407 | 0.221 | 0.833 | 0.2 | 0.458 | 0.186 | 0.407 | 0.33 | 1.06 | 0.385 | 1.63 | 0.206 | 0.511 | 0.239 | 0.686 | 0.88 | 2.17
CN(C)CCOC(=O)Nc1nc2ccc(Sc3ccccc3)cc2[nH]1 | 3.16 | 17.2 | 3.16 | 12.6 | 1.35 | 15.2 | 3.25 | 12.3 | 2.58 | 10.8 | 2.66 | 9.06 | 3 | 22.7 | 9.19 | 24.3 | 3.69 | 16.3 | 3.11 | 15.4
CN(C)c1ccc(N=C2C=CC(=O)c3ccccc32)cc1 | 3.58 | 16.3 | 2.88 | 13.3 | 1.87 | 7.46 | 0.899 | 12.7 | 1.97 | 4.51 | 1.28 | 3.08 | 2.66 | 19.8 | 2.38 | 5.73 | 1.68 | 3.42 | 2.28 | 16.6
CCN(Cc1ccc(F)cc1)c1ccc(CO)c(OC)c1 | 4.69 | 33.3 | 10 | 28.2 | 25.3 | > 100 | 23.1 | > 88.5 | 6.61 | 20 | 13.1 | 27.5 | 13.3 | 33.9 | 20.2 | > 100 | 21.1 | > 100 | 13.7 | 35.6
CN1CCN(Cc2ccc(NC(=O)c3cncc(C#Cc4cnc(N)c5cnccc45)c3)cc2C(F)(F)F)CC1 | 0.979 | 6.61 | 0.142 | 1.74 | 0.921 | 8.75 | 0.0722 | 0.223 | 0.226 | 9.45 | 0.337 | 8.43 | 0.284 | 8.97 | 0.0937 | 0.394 | 0.182 | 2.62 | 0.42 | 1.31
O=[N+]([O-])c1ccc(Sc2ccncn2)c([N+](=O)[O-])c1 | 0.602 | 1.93 | 0.726 | 2 | 2.46 | 7.74 | 7.79 | 20.8 | 0.291 | 0.987 | 1.46 | 2.82 | 3.98 | 15.7 | 4.31 | 9.44 | 0.413 | 1.53 | 1.08 | 2.84
C[CH2][Sn]([CH2]C)([O]C(=O)c1ccc(OC)c(OC)c1OC)[O]C(=O)c1ccc(OC)c(OC)c1OC | 14.7 | 30.6 | > 100 | > 100 | 24.7 | 49.2 | 59.1 | > 100 | 2.42 | 8.54 | > 100 | > 100 | > 100 | > 100 | 26.6 | > 69 | 36.5 | 69.1 | > 65.7 | > 96.4
COc1ccc2c(c1OC(C)=O)C1=CC(=O)CCC13CCNC3C2 (stereo not given) |  | > 100 |  | > 100 |  | > 100 |  | > 100 |  | > 100 |  | > 100 |  | > 100 |  | > 100 |  | > 100 |  | > 100
Cn1c2ccccc2c2c(=O)n(CCCC(=O)OC(=NC3CCCCC3)NC3CCCCC3)c3c(-c4ccccc4)nnn3c21 | > 100 | > 100 | 91.8 | > 100 | 64.1 | > 100 | 71.7 | > 100 | 69.5 | > 100 | > 100 | > 100 | > 100 | > 100 | > 100 | > 100 | > 100 | > 100 | > 100 | > 100
Cc1ccc(S(=O)(=O)Nc2ccc(-c3cc(-c4cccc(F)c4)c(C#N)c(N)n3)cc2)cc1 | 1.6 | 3.16 | 1.69 | 3.23 | 2.32 | 10 | 1.95 | 4.6 | 1.69 | 4.91 | 1.63 | 3.12 | 2.19 | 7.56 | 1.96 | 4.08 | 2 | 4.4 | 1.32 | 2.59
CCCCCC[C@H](C)NC(=O)c1ccc(Nc2nc3ccccc3c3occc23)cc1 | 3.97 | 50.5 | 2.14 | 6.43 | 5.86 | > 100 | 12.6 | 51.8 | 2.5 | 5.74 | 3.11 | 19.7 | 5.36 | > 100 | 5.41 | > 100 | 3.57 | > 100 | 0.596 | 3.53
N#CC1C(=O)NC(c2ccccc2[N+](=O)[O-])c2sc3c(F)cccc3c21 (stereo not given) | 0.242 | 5.43 | 0.138 | 11.9 | 0.216 | 37 | 8.53 | 54.8 | 14.1 | 48 | 0.318 | 12.7 | 12.4 | 73 | 29.5 | > 100 | 0.366 | > 100 | 5.44 | 36.1
COC(=O)[C@]12CC[C@@H](C)[C@H](C)[C@@H]1C1=CC[C@@H]3[C@@]4(C)C(C=O)=C[C@@](C)(COC(=O)/C=C/c5ccccc5)[C@@H]4[C@H](O)C[C@@]3(C)[C@]1(C)CC2 | 3.56 | > 100 | 3.06 | 13.7 | 2.37 | 11.3 | 4.36 | 27.2 | 4.47 | 17.4 | 2.35 | 5.53 | 2.22 | > 100 | 2.7 | 7.63 | 3.68 | 18.8 | 3.28 | 20.2
COCc1c(-c2ccc(NC(=O)Nc3cc(C(F)(F)F)ccc3F)c(F)c2)c2c(N)ncnn2c1CN1CCOCC1 | 1.9 | > 10 | 1.7 | > 10 | 2.2 | 8.23 | 1.91 | > 10 | 1.76 | 4.05 | 3.37 | > 10 | 2.88 | > 10 | 3.02 | > 10 | 2.58 | > 10 | 1.59 | > 10
COc1ccc2c(c1)C(=O)c1c-2c(Nc2cccc(C(C)=O)c2)nc2ccccc12 | 20.3 | 43.6 | 2.64 | 10.9 | 24 | > 100 | 3.21 | 12.7 | 8.53 | 35.1 | 19.7 | 42.8 | 14.3 | 32.5 | 15.1 | 64.6 | 21.2 | > 100 | 15.4 | 45.2
C=CCc1c(O)c(C(=O)/C=C/c2ccccc2)c(OC)c2ccoc12 | 2.8 | 11 | 3.03 | 11.1 | 2.73 | 10.4 | 3.11 | 11.3 | 2.15 | 9.28 | 2.46 | 7.06 | 3.68 | 16.8 | 2.49 | 8.28 | 3.32 | 12.1 | 2.89 | 14.5
CCn1ccc(NS(=O)(=O)c2ccc(N)cc2)nc1=O | > 100 | > 100 | > 100 | > 100 | > 100 | > 100 | > 100 | > 100 | > 100 | > 100 | > 100 | > 100 | > 100 | > 100 | > 100 | > 100 | > 100 | > 100 | > 100 | > 100
COc1ccc(/C=C2\c3cc(OC)c(OC)c(OC)c3CC[C@@H]2O)cc1F | 0.391 | > 100 | 0.331 | > 100 | 0.088 | > 100 | 0.958 | > 100 | 0.156 | 0.639 | 0.262 | > 100 | 0.474 | > 100 | 7.54 | > 100 | 0.246 | > 100 | 0.534 | 89.9
